The supplement of paper PMC10307832

Assays:
Test in all cases: relative viability (nuclei count vs DMSO), 5 days (fraction); higher = more cells survive
NCI-H1915 = tested on: NCI-H1915
Outline: (§1)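 After 5 days of treatment, lung cancer cells in 1536-well plates were fixed and stained in a single step (final 0.05% Triton X-100, 1% formaldehyde, 1 ug/ml Hoechst) and their nuclei counted on 4× images. Treatment had been applied by pin tool the day after seeding as one drug alone or as a fixed anchor-drug dose with five library-drug doses (not always all listed) in √10 steps. Relative viability is the nuclei count of treated wells divided by that of vehicle wells, and values are medians of duplicate plates.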

NCI-H2087 = tested on: NCI-H2087
Outline: as §1

NCI-H647 = tested on: NCI-H647
Outline: as §1

NCI-H650 = tested on: NCI-H650
Outline: as §1

NCI-H2126 = tested on: NCI-H2126
Outline: as §1

NCI-H522 = tested on: NCI-H522
Outline: as §1

PC-14 = tested on: PC-14
Outline: as §1

NCI-H2405 = tested on: NCI-H2405
Outline: as §1

NCI-H322M = tested on: NCI-H322M
Outline: as §1

H3255 = tested on: H3255
Outline: as §1

LC-2-ad = tested on: LC-2-ad
Outline: as §1

HCC-78 = tested on: HCC-78
Outline: as §1

NCI-H1666 = tested on: NCI-H1666
Outline: as §1

RERF-LC-KJ = tested on: RERF-LC-KJ
Outline: as §1

LCLC-97TM1 = tested on: LCLC-97TM1
Outline: as §1

ChaGo-K-1 = tested on: ChaGo-K-1
Outline: as §1

201T = tested on: 201T
Outline: as §1

EPLC-272H = tested on: EPLC-272H
Outline: as §1

NCI-H23 = tested on: NCI-H23
Outline: as §1

NCI-H2347 = tested on: NCI-H2347
Outline: as §1

HCC-827 = tested on: HCC-827
Outline: as §1

Clc1ccc(Nc2nnc(Cc3ccncc3)c3ccccc23)cc1 [Vatalanib] + NC(=O)Nc1cc(-c2cccc(F)c2)sc1C(=O)N[C@H]1CCCNC1 [AZD7762] (partner 0.2 µM)
relative viability (NCI-H1915; first compound 0.04 µM): 0.717
relative viability (NCI-H1915; first compound 0.1265 µM): 0.665
relative viability (NCI-H1915; first compound 0.4 µM): 0.716
relative viability (NCI-H1915; first compound 1.265 µM): 0.653
relative viability (NCI-H1915; first compound 4 µM): 0.661
relative viability (NCI-H2087; first compound 0.04 µM): 1.28
relative viability (NCI-H2087; first compound 0.1265 µM): 1.25
relative viability (NCI-H2087; first compound 0.4 µM): 1.4
relative viability (NCI-H2087; first compound 1.265 µM): 1.19
relative viability (NCI-H2087; first compound 4 µM): 1.15
relative viability (NCI-H647; first compound 0.04 µM): 0.489
relative viability (NCI-H647; first compound 0.1265 µM): 0.45
relative viability (NCI-H647; first compound 0.4 µM): 0.395
relative viability (NCI-H647; first compound 1.265 µM): 0.391
relative viability (NCI-H647; first compound 4 µM): 0.46
relative viability (NCI-H650; first compound 0.04 µM): 1.03
relative viability (NCI-H650; first compound 0.1265 µM): 0.916
relative viability (NCI-H650; first compound 0.4 µM): 0.937
relative viability (NCI-H650; first compound 1.265 µM): 0.883
relative viability (NCI-H650; first compound 4 µM): 0.907
relative viability (NCI-H2126; first compound 0.04 µM): 0.994
relative viability (NCI-H2126; first compound 0.1265 µM): 0.99
relative viability (NCI-H2126; first compound 0.4 µM): 1.02
relative viability (NCI-H2126; first compound 1.265 µM): 0.995
relative viability (NCI-H2126; first compound 4 µM): 1.07
relative viability (NCI-H522; first compound 0.04 µM): 0.848
relative viability (NCI-H522; first compound 0.1265 µM): 0.794
relative viability (NCI-H522; first compound 0.4 µM): 0.777
relative viability (NCI-H522; first compound 1.265 µM): 0.74
relative viability (NCI-H522; first compound 4 µM): 0.808
relative viability (PC-14; first compound 0.04 µM): 0.31
relative viability (PC-14; first compound 0.1265 µM): 0.332
relative viability (PC-14; first compound 1.265 µM): 0.26
relative viability (PC-14; first compound 4 µM): 0.318
relative viability (NCI-H2405; first compound 0.04 µM): 0.799
relative viability (NCI-H2405; first compound 0.1265 µM): 0.694
relative viability (NCI-H2405; first compound 0.4 µM): 0.725
relative viability (NCI-H2405; first compound 4 µM): 0.696
relative viability (NCI-H322M; first compound 0.04 µM): 0.543
relative viability (NCI-H322M; first compound 0.1265 µM): 0.527
relative viability (NCI-H322M; first compound 0.4 µM): 0.503
relative viability (NCI-H322M; first compound 4 µM): 0.47
relative viability (H3255; first compound 0.04 µM): 0.829
relative viability (H3255; first compound 0.1265 µM): 0.892
relative viability (H3255; first compound 0.4 µM): 0.832
relative viability (H3255; first compound 1.265 µM): 0.732
relative viability (H3255; first compound 4 µM): 0.773
relative viability (LC-2-ad; first compound 0.04 µM): 0.897
relative viability (LC-2-ad; first compound 0.1265 µM): 0.762
relative viability (LC-2-ad; first compound 0.4 µM): 0.92
relative viability (LC-2-ad; first compound 1.265 µM): 0.785
relative viability (LC-2-ad; first compound 4 µM): 0.817
relative viability (HCC-78; first compound 0.04 µM): 0.566
relative viability (HCC-78; first compound 0.1265 µM): 0.633
relative viability (HCC-78; first compound 0.4 µM): 0.59
relative viability (HCC-78; first compound 1.265 µM): 0.562
relative viability (HCC-78; first compound 4 µM): 0.547
relative viability (NCI-H1666; first compound 0.04 µM): 0.733
relative viability (NCI-H1666; first compound 0.1265 µM): 0.874
relative viability (NCI-H1666; first compound 0.4 µM): 0.855
relative viability (NCI-H1666; first compound 1.265 µM): 0.694
relative viability (NCI-H1666; first compound 4 µM): 0.762
relative viability (RERF-LC-KJ; first compound 0.04 µM): 1.16
relative viability (RERF-LC-KJ; first compound 0.1265 µM): 0.919
relative viability (RERF-LC-KJ; first compound 0.4 µM): 1.05
relative viability (RERF-LC-KJ; first compound 1.265 µM): 0.711
relative viability (RERF-LC-KJ; first compound 4 µM): 0.749
relative viability (LCLC-97TM1; first compound 0.04 µM): 0.24
relative viability (LCLC-97TM1; first compound 0.1265 µM): 0.263
relative viability (LCLC-97TM1; first compound 0.4 µM): 0.222
relative viability (LCLC-97TM1; first compound 1.265 µM): 0.172
relative viability (LCLC-97TM1; first compound 4 µM): 0.23
relative viability (ChaGo-K-1; first compound 0.04 µM): 0.941
relative viability (ChaGo-K-1; first compound 0.1265 µM): 0.845
relative viability (ChaGo-K-1; first compound 0.4 µM): 0.88
relative viability (ChaGo-K-1; first compound 1.265 µM): 0.865
relative viability (ChaGo-K-1; first compound 4 µM): 0.876
relative viability (201T; first compound 0.04 µM): 0.611
relative viability (201T; first compound 0.1265 µM): 0.57
relative viability (201T; first compound 0.4 µM): 0.621
relative viability (201T; first compound 1.265 µM): 0.648
relative viability (201T; first compound 4 µM): 0.57
relative viability (EPLC-272H; first compound 0.04 µM): 0.0728
relative viability (EPLC-272H; first compound 0.1265 µM): 0.167
relative viability (EPLC-272H; first compound 0.4 µM): 0.212
relative viability (EPLC-272H; first compound 1.265 µM): 0.216
relative viability (EPLC-272H; first compound 4 µM): 0.207
relative viability (NCI-H23; first compound 0.04 µM): 0.269
relative viability (NCI-H23; first compound 0.1265 µM): 0.229
relative viability (NCI-H23; first compound 0.4 µM): 0.228
relative viability (NCI-H23; first compound 1.265 µM): 0.259
relative viability (NCI-H23; first compound 4 µM): 0.266
relative viability (NCI-H2347; first compound 0.04 µM): 0.776
relative viability (NCI-H2347; first compound 0.1265 µM): 0.932
relative viability (NCI-H2347; first compound 0.4 µM): 0.901
relative viability (NCI-H2347; first compound 1.265 µM): 0.521
relative viability (NCI-H2347; first compound 4 µM): 0.769
relative viability (HCC-827; first compound 0.04 µM): 0.187
relative viability (HCC-827; first compound 0.1265 µM): 0.282
relative viability (HCC-827; first compound 1.265 µM): 0.183
relative viability (HCC-827; first compound 4 µM): 0.194
